Test results: patent publication US7745495B2, “Pyridine ketones with herbicidal effect” (Syngenta Crop Protection, Inc., priority 2004, dated 2010)

Experiments:
Brachiaria = assay: Pre-emergent herbicidal activity; type: in vivo; conditions: Table B5, rating 10=total damage, 0=no action
Procedure: (§1) Monocotyledonous and dicotyledonous test plants are sown in standard soil in plastic pots. […] The test plants are then grown in a greenhouse under optimum conditions. After a test duration of 3 weeks, the test is evaluated in accordance with a scale of ten ratings (10=total damage, 0=no action). Ratings of from 10 to 7 (especially from 10 to 8) indicate good to very good herbicidal action.
(§2) In the following Table B3, the pre-emergent herbicidal activity of compound H-14 according to the invention is compared with 4 compounds according to the prior art. All compounds are structurally identical except for the nature of the alkylene linker attached to the pyridine ring.

Scirpus = assay: Pre-emergent herbicidal activity; type: in vivo; conditions: Table B5, rating 10=total damage, 0=no action
Procedure: as §1
In the following Table B5, the pre-emergent herbicidal activity of compound H-9 according to the invention is compared with compound E according to the prior art. Both compounds are structurally identical except for the length of the alkylene linker attached to the pyridine ring.

Abutilon [1] = assay: Pre-emergence herbicidal action; type: in vivo; conditions: rating 10=total damage, 0=no action
Procedure: as §1

Echinochloa = assay: Pre-emergence herbicidal action; type: in vivo; conditions: rating 10=total damage, 0=no action
Procedure: as §1

Amaranthus = assay: Pre-emergence herbicidal action; type: in vivo; conditions: rating 10=total damage, 0=no action
Procedure: as §1

Digitaria [2] = assay: Pre-emergence herbicidal action; type: in vivo; conditions: rating 10=total damage, 0=no action
Procedure: as §1

Corn = assay: Pre-emergent herbicidal activity on crop plant; type: in vivo; conditions: crop plant, rating 10=total damage, 0=no action; for Pre-emergent Herbicidal Activity: Mais: Table B5; for Pre-emergent Herbicidal Activity: Corn: Table B4
Procedure: as §1, §2

Soya = assay: Pre-emergent herbicidal activity on crop plant; type: in vivo; conditions: crop plant, rating 10=total damage, 0=no action; for Pre-emergent Herbicidal Activity: Soja: Table B5; for Pre-emergent Herbicidal Activity: Soya: Table B4
Procedure: as §1, §2

Stellaria [3] = assay: Pre-emergence herbicidal action; type: in vivo; conditions: 250 g/ha; after 3 weeks; rating 10=total damage, 0=no action
Procedure: (§3) Monocotyledonous and dicotyledonous test plants are sown in standard soil in plastic pots. Immediately after sowing, the test compounds, in the form of an aqueous suspension (prepared from a 25% wettable powder (Example F3, b) according to WO 97/34485) or in the form of an emulsion (prepared from a 25% emulsifiable concentrate (Example F1, c)), are applied by spraying a concentration corresponding to 125 g or 250 g of active ingredient/ha (500 liter of water/ha). The test plants are then grown in a greenhouse under optimum conditions. After a test duration of 3 weeks, the test is evaluated in accordance with a scale of ten ratings (10=total damage, 0=no action). Ratings of from 10 to 7 (especially from 10 to 8) indicate good to very good herbicidal action.

Chenopodium [4] = assay: Pre-emergence herbicidal action; type: in vivo; conditions: 250 g/ha; after 3 weeks; rating 10=total damage, 0=no action
Procedure: as §3

Panicum [5] = assay: Pre-emergence herbicidal action; type: in vivo; conditions: rating 10=total damage, 0=no action; for Pre-emergent Herbicidal Activity: Panicum: Table B4
Procedure: as §1

Stellaria [6] = assay: Post-emergence herbicidal action; type: in vivo; conditions: 250 g/ha; 4- to 6-leaf stage; after about 18 days; rating 10=total damage, 0=no action
Procedure: (§4) In a greenhouse, monocotyledonous and dicotyledonous test plants are grown in standard soil in plastic pots and at the 4- to 6-leaf stage are sprayed with an aqueous suspension of the test compounds of formula I prepared from a 25% wettable powder (Example F3, b) according to WO 97/34485) or with an emulsion of the test compounds of formula I prepared from a 25% emulsifiable concentrate (Example F1, c) according to WO 97/34485), in a concentration corresponding to 125 g or 250 g of active ingredient/ha (500 liter of water/ha). The test plants are then grown on in a greenhouse under optimum conditions. After a test duration of about 18 days, the test is evaluated in accordance with a scale of ten ratings (10=total damage, 0=no action). Ratings of from 10 to 7 (especially from 10 to 8) indicate good to very good herbicidal action.

Ipomea = assay: Post-emergence herbicidal action; type: in vivo; conditions: 250 g/ha; 4- to 6-leaf stage; after about 18 days; rating 10=total damage, 0=no action
Procedure: as §4

Panicum [7] = assay: Post-emergence herbicidal action; type: in vivo; conditions: 250 g/ha; 4- to 6-leaf stage; after about 18 days; rating 10=total damage, 0=no action
Procedure: as §4

Abutilon [8] = assay: Post-emergence herbicidal action; type: in vivo; conditions: 250 g/ha; 4- to 6-leaf stage; after about 18 days; rating 10=total damage, 0=no action
Procedure: as §4

Setaria = assay: Post-emergence herbicidal action; type: in vivo; conditions: 250 g/ha; 4- to 6-leaf stage; after about 18 days; rating 10=total damage, 0=no action
Procedure: as §4

Sinapis = assay: Post-emergence herbicidal action; type: in vivo; conditions: 250 g/ha; 4- to 6-leaf stage; after about 18 days; rating 10=total damage, 0=no action
Procedure: as §4

Digitaria [9] = assay: Post-emergence herbicidal action; type: in vivo; conditions: 250 g/ha; 4- to 6-leaf stage; after about 18 days; rating 10=total damage, 0=no action
Procedure: as §4

Chenopodium [10] = assay: Post-emergence herbicidal action; type: in vivo; conditions: 250 g/ha; 4- to 6-leaf stage; after about 18 days; rating 10=total damage, 0=no action
Procedure: as §4

Xanthium = assay: Pre-emergent herbicidal activity; type: in vivo; conditions: Table B4, rating 10=total damage, 0=no action
Procedure: as §1
In the following Table B4, the pre-emergent herbicidal activity of compound H-3 according to the invention is compared with compound D according to the prior art. Both compounds are structurally identical except for the length of the alkylene linker attached to the pyridine ring.

**Q.** With `COCc1nc(C(F)(F)Cl)ccc1C(=O)C1C(=O)C2CCC(C2)C1=O` (stereo not drawn) [E, reference compound] as the compound, how does the “Pre-emergent Herbicidal Activity: Brachiaria” value (Brachiaria; 30 g/ha) read?
**A.** 0

**Q.** What about the “Pre-emergent Herbicidal Activity: Brachiaria” value (Brachiaria; 60 g/ha) of the same compound?
**A.** 0

**Q.** And the “Pre-emergent Herbicidal Activity: Scirpus” value (Scirpus; 30 g/ha)?
**A.** 9

**Q.** And the “Pre-emergent Herbicidal Activity: Scirpus” value (Scirpus; 60 g/ha)?
**A.** 9

**Q.** And the “Pre-emergent Herbicidal Activity: Abutilon” value (Abutilon [1]; Table B5, 30 g/ha)?
**A.** 0

**Q.** What about the “Pre-emergent Herbicidal Activity: Abutilon” value (Abutilon [1]; Table B5, 60 g/ha) of the same compound?
**A.** 0

**Q.** What about the “Pre-emergent Herbicidal Activity: Echinochloa” value (Echinochloa; Table B5, 30 g/ha) of the same compound?
**A.** 8

**Q.** What about the “Pre-emergent Herbicidal Activity: Echinochloa” value (Echinochloa; Table B5, 60 g/ha) of the same compound?
**A.** 9

**Q.** What about the “Pre-emergent Herbicidal Activity: Amaranthus” value (Amaranthus; Table B5, 30 g/ha) of the same compound?
**A.** 5

**Q.** What about the “Pre-emergent Herbicidal Activity: Amaranthus” value (Amaranthus; Table B5, 60 g/ha) of the same compound?
**A.** 7

**Q.** What about the “Pre-emergent Herbicidal Activity: Digitaria” value (Digitaria [2]; Table B5, 30 g/ha) of the same compound?
**A.** 6

**Q.** What about the “Pre-emergent Herbicidal Activity: Digitaria” value (Digitaria [2]; Table B5, 60 g/ha) of the same compound?
**A.** 6

**Q.** And the “Pre-emergent Herbicidal Activity: Mais” value (Corn; 30 g/ha)?
**A.** 0

**Q.** And the “Pre-emergent Herbicidal Activity: Mais” value (Corn; 60 g/ha)?
**A.** 0

**Q.** And the “Pre-emergent Herbicidal Activity: Soja” value (Soya; 30 g/ha)?
**A.** 2

**Q.** And the “Pre-emergent Herbicidal Activity: Soja” value (Soya; 60 g/ha)?
**A.** 4

**Q.** For `COCCCc1nc(C(F)F)ccc1C(=O)C1C(=O)C2CCC(C2)C1=O` (stereo not drawn) [Compound H-3, 3-[6-Difluoromethyl-2-(3-methoxy-propyl)-pyridine-3-carbonyl]-bicyclo[3.2.1]octane-2,4-dione], which “Pre-emergence herbicidal action: Stellaria” value (Stellaria [3]) is on record?
**A.** 8

**Q.** And the “Pre-emergence herbicidal action: Chenopodium” value (Chenopodium [4])?
**A.** 10

**Q.** And the melting point?
**A.** 45 to 46 °C

**Q.** And the “Pre-emergence herbicidal action: Panicum” value (Panicum [5]; 250 g/ha, after 3 weeks)?
**A.** 10

**Q.** And the “Pre-emergent Herbicidal Activity: Panicum” value (Panicum [5]; 30 g/ha)?
**A.** 10

**Q.** What about the “Pre-emergent Herbicidal Activity: Panicum” value (Panicum [5]; 60 g/ha) of the same compound?
**A.** 10

**Q.** What about the “Pre-emergence herbicidal action: Abutilon” value (Abutilon [1]; 250 g/ha, after 3 weeks) of the same compound?
**A.** 10

**Q.** What about the “Pre-emergent Herbicidal Activity: Abutilon” value (Abutilon [1]; Table B4, 30 g/ha) of the same compound?
**A.** 9

**Q.** And the “Pre-emergent Herbicidal Activity: Abutilon” value (Abutilon [1]; Table B4, 60 g/ha)?
**A.** 10

**Q.** And the “Pre-emergence herbicidal action: Echinochloa” value (Echinochloa; 250 g/ha, after 3 weeks)?
**A.** 10

**Q.** And the “Pre-emergent Herbicidal Activity: Echinochloa” value (Echinochloa; Table B4, 30 g/ha)?
**A.** 10

**Q.** What about the “Pre-emergent Herbicidal Activity: Echinochloa” value (Echinochloa; Table B4, 60 g/ha) of the same compound?
**A.** 10

**Q.** And the “Pre-emergence herbicidal action: Amaranthus” value (Amaranthus; 250 g/ha, after 3 weeks)?
**A.** 10

**Q.** What about the “Pre-emergent Herbicidal Activity: Amaranthus” value (Amaranthus; Table B4, 30 g/ha) of the same compound?
**A.** 9

**Q.** What about the “Pre-emergent Herbicidal Activity: Amaranthus” value (Amaranthus; Table B4, 60 g/ha) of the same compound?
**A.** 10

**Q.** And the “Pre-emergence herbicidal action: Digitaria” value (Digitaria [2]; 250 g/ha, after 3 weeks)?
**A.** 10

**Q.** And the “Pre-emergent Herbicidal Activity: Digitaria” value (Digitaria [2]; Table B4, 30 g/ha)?
**A.** 9

**Q.** What about the “Pre-emergent Herbicidal Activity: Digitaria” value (Digitaria [2]; Table B4, 60 g/ha) of the same compound?
**A.** 9

**Q.** What about the “Post-emergence herbicidal action: Stellaria” value (Stellaria [6]) of the same compound?
**A.** 9

**Q.** What about the “Post-emergence herbicidal action: Ipomea” value (Ipomea) of the same compound?
**A.** 8

**Q.** What about the “Post-emergence herbicidal action: Panicum” value (Panicum [7]) of the same compound?
**A.** 10

**Q.** What about the “Post-emergence herbicidal action: Abutilon” value (Abutilon [8]) of the same compound?
**A.** 9

**Q.** And the “Post-emergence herbicidal action: Setaria” value (Setaria)?
**A.** 9

**Q.** And the “Post-emergence herbicidal action: Sinapis” value (Sinapis)?
**A.** 9

**Q.** And the “Post-emergence herbicidal action: Digitaria” value (Digitaria [9])?
**A.** 9

**Q.** And the “Post-emergence herbicidal action: Chenopodium” value (Chenopodium [10])?
**A.** 10

**Q.** And the “Pre-emergent Herbicidal Activity: Corn” value (Corn; 30 g/ha)?
**A.** 0

**Q.** And the “Pre-emergent Herbicidal Activity: Corn” value (Corn; 60 g/ha)?
**A.** 0

**Q.** And the “Pre-emergent Herbicidal Activity: Soya” value (Soya; 30 g/ha)?
**A.** 0

**Q.** And the “Pre-emergent Herbicidal Activity: Soya” value (Soya; 60 g/ha)?
**A.** 0

**Q.** And the “Pre-emergent Herbicidal Activity: Xanthium” value (Xanthium; 30 g/ha)?
**A.** 7

**Q.** And the “Pre-emergent Herbicidal Activity: Xanthium” value (Xanthium; 60 g/ha)?
**A.** 7
